Measured values from US20180153995A1, “USE OF ANTIMICROBIAL POLYMERS FOR RE-SENSITIZATION OF MICROORGANISMS UPON EMERGENCE OF RESISTANCE TO ANTI-MICROBIAL AGENTS” (Technion Research & Development Foundation Limited, priority 2008, published 2018).
Like-named read-outs stand apart in the source and are kept apart here.

Assays:
MRSA 15903 = assay: microbe, parasite or virus in culture; assay type: cell-based, Staphylococcus aureus
Summary of the method: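 Two-agent combinations tested against MRSA 15903; FIC index = A/MICA + B/MICB, using MICs in combination versus alone. Below 0.5 read as clear re-sensitizing, 0.5–4 marginal or null, above 4 antagonism.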

S. aureus 15819 = assay: Antibiotic MIC by microdilution with or without sub-MIC polymer; assay type: cell-based, Staphylococcus aureus; details: S. aureus 15819
S. aureus 15877 = assay: as above; assay type: cell-based, Staphylococcus aureus
S. aureus 17314 = assay: as above; assay type: cell-based, Staphylococcus aureus; details: S. aureus 17314
E. coli 14384 = assay: as above; assay type: cell-based, Escherichia coli; details: E. coli 14384
Description: (§1) MICs were determined by microdilution susceptibility testing in 96-well plates (by Nunc) using inocula of 10^5 bacteria per ml. Cell populations were evaluated by optical density measurements at 620 nm and were calibrated against a set of standards. Hundred (100) μl of a bacterial suspension were added to 100 μl of culture medium (control) or to 100 μl of culture medium containing various polymer concentrations in 2-fold serial dilutions. Inhibition of proliferation was determined by optical density measurements at 620 nm after an incubation period of 24 hours at 37° C.
(§2) 100 μl of a bacterial suspension were added to 100 μl of culture medium (control) or to 100 μl of culture medium containing various antibiotic and C14(9-ene)KKNC12KNH2 (SEQ ID NO: 5) concentrations in 2-fold serial dilutions. Inhibition of proliferation was determined by optical density measurements at 620 nm after an incubation period of 24 hours at 37° C.

E. coli 16327 = assay: microbe, parasite or virus in culture
E. coli 16329 = assay type: cell-based, Escherichia coli; details: E. coli U-16329
Description: as §1, §2

E. coli 14182 = assay: Antibiotic MIC by microdilution with or without sub-MIC polymer; assay type: cell-based, Escherichia coli
S. maltophila 748 = assay: as above; assay type: cell-based, Stenotrophomonas maltophila
[1] = system: E. coli K-12 efflux knockout mutant; assay type: cell-based, Escherichia coli; details: E. coli AG100A (efflux−)
Description: as §1

[2] = system: E. coli K-12 resistant wild type; assay type: cell-based, Escherichia coli; details: E. coli AG100 (w.t.)
S. aureus 43300 = assay: Antibiotic MIC by microdilution with or without sub-MIC polymer; assay type: cell-based, Staphylococcus aureus
[3] = +¼ MIC (1.6 μM) C12(5-ene)KKNC12KNH2
[4] = +¼ MIC (1.6 μM) C12K(KNC12K)3NH2
[5] = +½ MIC (3.12 μM) C12(5-ene)KKNC12KNH2
[6] = +⅓ MIC (2.1 μM) C12(5-ene)KKNC12KNH2
[7] = +⅓ MIC (2.1 μM) C12K(KNC12K)3NH2
[8] = +¼ MIC (1.6 μM) C12K(KNC12K)2NH2
[9] = +¼ MIC (1.6 μM) C14(9-ene)KKNC12KNH2
[10] = +¼ MIC (1.6 μM) C16(9-ene)KKNC12KNH2
[11] = +½ MIC (3.12 μM) C12K(KNC12K)2NH2
[12] = +½ MIC (3.12 μM) C14(9-ene)KKNC12KNH2
[13] = +½ MIC (3.12 μM) C16(9-ene)KKNC12KNH2
[14] = +⅓ MIC (2.1 μM) C12K(KNC12K)2NH2
[15] = +⅓ MIC (2.1 μM) C14(9-ene)KKNC12KNH2
[16] = +⅓ MIC (2.1 μM) C16(9-ene)KKNC12KNH2
[17] = polymer at ½ of its MIC (Table 16)
[18] = the OAK at ½ of its MIC (Table 17)

SMILES: CC[C@H]1OC(=O)[C@H](C)[C@@H](O[C@H]2C[C@@](C)(OC)[C@@H](O)[C@H](C)O2)[C@H](C)[C@@H](O[C@@H]2O[C@H](C)C[C@H](N(C)C)[C@H]2O)[C@](C)(O)C[C@@H](C)C(=O)[C@H](C)[C@@H](O)[C@]1(C)O [Erythromycin, erythromycin]
- MIC (MRSA 15903; MRSA 15903, +¼ polymer MIC (1.6 μM) NC12(KNC12K)2NH2): 1 µg/mL
- MIC (MRSA 15903; MRSA 15903, +½ polymer MIC (3.1 μM) NC12(KNC12K)2NH2): 0.016 µg/mL
- MIC, ½ + MIC OAK (MRSA 15903; MRSA 15903, with C12K(KNC10K)3NH2 (SEQ ID NO: 10) at ½ of its MIC): 0.13 to 0.25 µg/mL
- MIC, ⅓ + MIC OAK (MRSA 15903; MRSA 15903, with C12K(KNC10K)3NH2 (SEQ ID NO: 10) at ⅓ of its MIC): 0.5 µg/mL
- MIC (MRSA 15903; S. aureus CI-15903, +polymer (¼ MIC) C12(5-ene)KKNC12KNH2): 0.5 µg/mL
- MIC (MRSA 15903; S. aureus CI-15903, +polymer (½ MIC) C12(5-ene)KKNC12KNH2): 0.1 µg/mL
- MIC (MRSA 15903; S. aureus CI-15903, +polymer (⅓ MIC) C12(5-ene)KKNC12KNH2): 0.1 µg/mL
- MIC (MRSA 15903; Staphylococcus aureus, MRSA, 24 h, MRSA 15903, antibiotic alone (Table 22), read-out: MIC, Alone): 1 µg/mL
- MIC (MRSA 15903; Staphylococcus aureus, MRSA, 24 h, MRSA 15903, antibiotic alone, read-out: MIC): 0.5 µg/mL
- MIC (MRSA 15903; Staphylococcus aureus, MRSA, 24 h, S. aureus CI-15903, alone, read-out: MIC): 0.5 µg/mL
- Antibiotic MIC (S. aureus 15819; [3]): 0.25 µg/mL
- Antibiotic MIC (S. aureus 15819; [4]): 0.5 µg/mL
- Antibiotic MIC (S. aureus 15819; +¼ MIC (1.6 μM) C12KKNC12KNH2): 0.5 µg/mL
- Antibiotic MIC (S. aureus 15819; [5]): 0.25 µg/mL
- Antibiotic MIC (S. aureus 15819; +½ MIC (3.12 μM) C12KKNC12KNH2): 0.5 µg/mL
- Antibiotic MIC (S. aureus 15819; [6]): 0.25 µg/mL
- Antibiotic MIC (S. aureus 15819; [7]): 0.25 µg/mL
- Antibiotic MIC (S. aureus 15819; +⅓ MIC (2.1 μM) C12KKNC12KNH2): 0.5 µg/mL
- Antibiotic MIC (S. aureus 15819; no polymer (None), Table 8): 0.25 µg/mL
- Antibiotic MIC (S. aureus 15819; no polymer (None), Table 11): 0.5 µg/mL
- Antibiotic MIC (S. aureus 15819; no polymer (None), Table 13): 0.5 µg/mL
- Antibiotic MIC (S. aureus 15877; [3]): >512 µg/mL
- Antibiotic MIC (S. aureus 15877; [5]): >512 µg/mL
- Antibiotic MIC (S. aureus 15877; [6]): >512 µg/mL
- Antibiotic MIC (S. aureus 15877; no polymer (None), Table 8): >512 µg/mL
- Antibiotic MIC (S. aureus 17314; [8]): 1 µg/mL
- Antibiotic MIC (S. aureus 17314; +¼ MIC (1.6 μM) C12KKNC12KNH2): 1 µg/mL
- Antibiotic MIC (S. aureus 17314; [9]): 1 µg/mL
- Antibiotic MIC (S. aureus 17314; [10]): 1 µg/mL
- Antibiotic MIC (S. aureus 17314; [11]): 0.5 to 1 µg/mL
- Antibiotic MIC (S. aureus 17314; +½ MIC (3.12 μM) C12KKNC12KNH2): 1 µg/mL
- Antibiotic MIC (S. aureus 17314; [12]): 1 µg/mL
- Antibiotic MIC (S. aureus 17314; [13]): 0.5 µg/mL
- Antibiotic MIC (S. aureus 17314; [14]): 0.5 to 1 µg/mL
- Antibiotic MIC (S. aureus 17314; +⅓ MIC (2.1 μM) C12KKNC12KNH2): 1 µg/mL
- Antibiotic MIC (S. aureus 17314; [15]): 1 µg/mL
- Antibiotic MIC (S. aureus 17314; [16]): 1 µg/mL
- Antibiotic MIC (S. aureus 17314; no polymer (None), Table 9): 1 µg/mL
- Antibiotic MIC (S. aureus 17314; no polymer (None), Table 10): 1 µg/mL
- Antibiotic MIC (S. aureus 17314; no polymer (None), Table 11): 1 µg/mL
- Antibiotic MIC (S. aureus 17314; no polymer (None), Table 12): 1 µg/mL
- Antibiotic MIC (E. coli 14384; +¼ MIC C12K(NC8K)5NH2): 32 to 64 µg/mL
- Antibiotic MIC (E. coli 14384; [12]): 32 µg/mL
- Antibiotic MIC (E. coli 14384; +½ MIC C12K(NC8K)5NH2): 4 to 8 µg/mL
- Antibiotic MIC (E. coli 14384; +⅓ MIC C12K(NC8K)5NH2): 32 µg/mL
- Antibiotic MIC in presence of C12K(NC8K)7NH2 (SEQ ID NO: 4), +½ MIC (E. coli 14384; polymer at ½ of its MIC): 8 to 16 µg/mL
- Antibiotic MIC in presence of C12K(NC8K)7NH2 (SEQ ID NO: 4), +⅓ MIC (E. coli 14384; polymer at ⅓ of its MIC): 16 to 32 µg/mL
- MIC, ½ + MIC OAK (E. coli 16327; E. coli U16327, with C12K(KNC10K)3NH2 (SEQ ID NO: 10) at ½ of its MIC): 4 to 8 µg/mL
- MIC, ⅓ + MIC OAK (E. coli 16327; E. coli U16327, with C12K(KNC10K)3NH2 (SEQ ID NO: 10) at ⅓ of its MIC): 8 µg/mL
- Antibiotic MIC in presence of C12K(NC8K)7NH2 (SEQ ID NO: 4), +½ MIC (E. coli 16327; E. coli U-16327, polymer at ½ of its MIC): 32 µg/mL
- Antibiotic MIC (E. coli 16329; +½ MIC C12K(NC8K)5NH2): 32 µg/mL
- Antibiotic MIC in presence of C12K(NC8K)7NH2 (SEQ ID NO: 4), +½ MIC (E. coli 16329; polymer at ½ of its MIC): 16 µg/mL
- Antibiotic MIC (E. coli 14182; +½ MIC C12K(NC8K)5NH2): 8 to 16 µg/mL
- Antibiotic MIC (E. coli 14182; +⅓ MIC C12K(NC8K)5NH2): 32 to 64 µg/mL
- Antibiotic MIC in presence of C12K(NC8K)7NH2 (SEQ ID NO: 4), +¼ MIC (E. coli 14182; polymer at ¼ of its MIC): 32 µg/mL
- Antibiotic MIC in presence of C12K(NC8K)7NH2 (SEQ ID NO: 4), +½ MIC (E. coli 14182; polymer at ½ of its MIC): 8 µg/mL
- Antibiotic MIC in presence of C12K(NC8K)7NH2 (SEQ ID NO: 4), +⅓ MIC (E. coli 14182; polymer at ⅓ of its MIC): 16 µg/mL
- Antibiotic MIC (S. maltophila 748; [4]): 512 µg/mL
- Antibiotic MIC (S. maltophila 748; [7]): 512 µg/mL
- Antibiotic MIC (S. maltophila 748; no polymer (None), Table 13): 512 µg/mL
- Antibiotic MIC, None ([1]; antibiotic alone (Table 16)): 4 to 8 µg/mL
- Antibiotic MIC, None ([1]; antibiotic alone (Table 17)): 4 to 8 µg/mL
- Antibiotic MIC in presence of C12K(NC8K)7NH2 (SEQ ID NO: 4), +¼ MIC ([1]; polymer at ¼ of its MIC (Table 16)): 4 to 8 µg/mL
- Antibiotic MIC in presence of C12K(NC8K)7NH2 (SEQ ID NO: 4), +½ MIC [1, 17]: 2 µg/mL
- Antibiotic MIC in presence of C12K(NC8K)7NH2 (SEQ ID NO: 4), +⅓ MIC ([1]; polymer at ⅓ of its MIC (Table 16)): 2 to 4 µg/mL
- Antibiotic MIC in presence of the OAK, +¼ MIC ([1]; the OAK at ¼ of its MIC (Table 17)): 4 to 8 µg/mL
- Antibiotic MIC in presence of the OAK, +½ MIC [1, 18]: 1 to 2 µg/mL
- Antibiotic MIC in presence of the OAK, +⅓ MIC ([1]; the OAK at ⅓ of its MIC (Table 17)): 4 µg/mL
- Antibiotic MIC in presence of C12K(NC8K)7NH2 (SEQ ID NO: 4), +½ MIC [2, 17]: 8 to 16 µg/mL
- Antibiotic MIC in presence of the OAK, +½ MIC [2, 18]: 16 µg/mL
- Antibiotic MIC (S. aureus 43300; [3]): 512 µg/mL
- Antibiotic MIC (S. aureus 43300; [8]): >512 µg/mL
- Antibiotic MIC (S. aureus 43300; +¼ MIC (1.6 μM) C12KKNC12KNH2): >512 µg/mL
- Antibiotic MIC (S. aureus 43300; [9]): >512 µg/mL
- Antibiotic MIC (S. aureus 43300; [10]): 512 µg/mL
- Antibiotic MIC (S. aureus 43300; [11]): >512 µg/mL
- Antibiotic MIC (S. aureus 43300; +½ MIC (3.12 μM) C12KKNC12KNH2): >512 µg/mL
- Antibiotic MIC (S. aureus 43300; [12]): >512 µg/mL
- Antibiotic MIC (S. aureus 43300; [13]): 512 µg/mL
- Antibiotic MIC (S. aureus 43300; [6]): 512 µg/mL
- Antibiotic MIC (S. aureus 43300; [14]): >512 µg/mL
- Antibiotic MIC (S. aureus 43300; +⅓ MIC (2.1 μM) C12KKNC12KNH2): >512 µg/mL
- Antibiotic MIC (S. aureus 43300; [15]): >512 µg/mL
- Antibiotic MIC (S. aureus 43300; [16]): 512 µg/mL
- Antibiotic MIC (S. aureus 43300; no polymer (None), Table 8): 512 µg/mL
- Antibiotic MIC (S. aureus 43300; no polymer (None), Table 9): >512 µg/mL
- Antibiotic MIC (S. aureus 43300; no polymer (None), Table 10): 512 µg/mL
- Antibiotic MIC (S. aureus 43300; no polymer (None), Table 11): >512 µg/mL
- Antibiotic MIC (S. aureus 43300; no polymer (None), Table 12): >512 µg/mL
